Source: patent US20170190705A1, “Compositions and Methods for Inhibiting BMP” (THE BRIGHAM AND WOMAN'S HOSPITAL, INC., priority 2014, published 2017)
pIC50: −log10 of the molar value.

What was measured:
MARK3 = MARK3 (Homo sapiens, UniProt P27448); assay: Kinome profiling MARK3; assay type: biochemical; settings: read-out: Inhibitory activity MARK3; for inhibition at 0.1 µM: 100 nM
Description: (§1) . The kinome-wide selectivity was determined following the methods previously reported by Mohedas et al., ACS Chem Biol 2013, 8, 1291-1302 and Sanvitale et al., PLoS One 2013, 8, e62721.

PASK = PASK (Homo sapiens, UniProt Q96RG2); assay: Kinome profiling PASK; assay type: biochemical; settings: read-out: Inhibitory activity PASK; for inhibition at 0.1 µM: 100 nM
Description: as §1

MSK2 = MSK2 (Homo sapiens, UniProt O75676); assay: Kinome profiling MSK2; assay type: biochemical; settings: read-out: Inhibitory activity MSK2; for inhibition at 0.1 µM: 100 nM
Description: as §1

MAPK1 = MAPK1 (Homo sapiens, UniProt P28482); assay: Kinome profiling MAPK1; assay type: biochemical; settings: read-out: Inhibitory activity MAPK1; for inhibition at 0.1 µM: 100 nM
Description: as §1

PYK2 = PYK2 (Homo sapiens, UniProt Q14289); assay: Kinome profiling PYK2; assay type: biochemical; settings: read-out: Inhibitory activity PYK2; for inhibition at 0.1 µM: 100 nM
Description: as §1

BLK = BLK (Homo sapiens, UniProt P51451); assay: Kinome profiling BLK; assay type: biochemical; settings: read-out: Inhibitory activity BLK; for inhibition at 0.1 µM: 100 nM
Description: as §1

GSK3β = GSK3β (Homo sapiens, UniProt P49841); assay: Kinome profiling GSK3β; assay type: biochemical; settings: read-out: Inhibitory activity GSK3β; for inhibition at 0.1 µM: 100 nM
Description: as §1

caALK3 = target: T1, caALK3 (Homo sapiens, UniProt P36894, Q233D); assay: Luciferase reporter assay constitutively active ALK3; settings: read-out: Cell Based Assay caALK3 IC50
T1 construct: expressed in transfected cells; host or cells: C2C12 BRE-Luc cells infected with adenovirus (MOI 100)
From the text: C2Cl2 […] cells stably transfected with BMP responsive element from the Id promoter fused to luciferase reporter gene (BRE-Luc) were generously provided by Dr. Peter ten Dijke (Leiden University Medical Center, NL) following the methods described by Zilberberg et al., BMC cell biology 2007, 8, 41-50. Human embryonic kidney 293T cells stably transfected with the TGF-β responsive element from the PAI-1 promoter fused to luciferase reporter gene (CAGA-Luc) were generously provided by Dr. Howard Weiner (Brigham and Women's Hospital, Boston, Mass.) following the methods described by Oida et al., PloS one 2011, 6, e18365. C2Cl2 Bre-Luc and 293T CAGA-Luc cells were seeded in DMEM supplemented with 2% FBS at 20,000 cells per well in tissue culture treated 96-well plates (Costar® 3610; Corning). The cells were incubated for 1 h (37° C. and 10% CO2) and allowed to settle and attach. Compounds of interest or DMSO were diluted in DMEM and added at final compound concentrations of 1 nM to 10 μM. Cells were then incubated for 30 min. Adenovirus expressing constitutively active BMP and TGF-β type I receptors (Ad.caALK1-5), generously provided by Dr. Akiko Hata (University of to California at San Francisco), were added to achieve a multiplicity of infection (MOI) of 100. Plates were incubated overnight at 37° C. Cell viability was assayed with an MIT (3-(4,5-dimethylthiazol-2-yl)-2,5-diphenyl tetrazolium bromide) colorimetric assay (Promega) per the manufacturer's instructions. Media was discarded, and firefly luciferase activity was measured (Promega) according to manufacturer's protocol. Light output was measured using a Spectramax L luminometer (Molecular Devices) with an integration time of one second per well. Data was normalized to 100% of incremental BRE-Luc activity due to adenoviruses specifying caALK1, 2, or 3, or the incremental CAGA-Luc activity due to adenoviruses specifying caALK4 or 5.

TRKC = TRKC (Homo sapiens, UniProt Q16288); assay: Kinome profiling TRKC; assay type: biochemical; settings: read-out: Inhibitory activity TRKC; for inhibition at 0.1 µM: 100 nM
Description: as §1

CK1-γ3 = CK1-γ3 (Homo sapiens, UniProt Q9Y6M4); assay: Kinome profiling CK1-γ3; assay type: biochemical; settings: read-out: Inhibitory activity CK1-γ3; for inhibition at 0.1 µM: 100 nM
Description: as §1

AKT3 = AKT3 (Homo sapiens, UniProt Q9Y243); assay: Kinome profiling AKT3; assay type: biochemical; settings: read-out: Inhibitory activity AKT3; for inhibition at 0.1 µM: 100 nM
Description: as §1

ALK2 = target: T2, ALK2 (Homo sapiens, UniProt Q04771, Q207D); assay: Thermal shift kinase assay ALK2; assay type: binding; settings: for ΔTm at 10 µM: 10 μM inhibitor; for ΔTmDiff.: ALK2 minus ALK5; for ΔT ALK2: Table 6; for ΔT Diff.: Table 6, ALK2 minus ALK5
T2 construct: His tag (TEV-cleavable) (N, cleaved yes); made in house; host or cells: Sf9 insect cells (baculovirus)
T2 sequence (Q04771 201-499 Q207D): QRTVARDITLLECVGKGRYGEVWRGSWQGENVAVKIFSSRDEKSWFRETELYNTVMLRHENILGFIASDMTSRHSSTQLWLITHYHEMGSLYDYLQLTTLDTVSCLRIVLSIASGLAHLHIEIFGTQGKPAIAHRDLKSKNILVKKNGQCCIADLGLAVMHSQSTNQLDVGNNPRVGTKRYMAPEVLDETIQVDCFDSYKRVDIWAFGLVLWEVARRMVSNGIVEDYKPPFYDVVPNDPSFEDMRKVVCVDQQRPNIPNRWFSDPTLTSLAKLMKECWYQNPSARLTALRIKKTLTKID
Description: Thermal melting experiments were performed using a Real Time PCR machine Mx3005p (Stratagene) with a protein concentration of 1-2 μM and 10 μM inhibitor as described by Niesen et al., Nat Protoc 2007, 2, 2212-21. Recombinant human kinases for DSF screening were prepared by SGC using the published methods of Sanvitale et al., PLoS One 2013, 8, e62721. The potency and selectivity of certain compounds of the invention based on thermal shift kinase and ligand induced transcriptional activity assays are shown in Table 2.

MEK1 = MEK1 (Homo sapiens, UniProt Q02750); assay: Kinome profiling MEK1; assay type: biochemical; settings: read-out: Inhibitory activity MEK1; for inhibition at 0.1 µM: 100 nM
Description: as §1

Chain of MSK2 (O75676 whole entry): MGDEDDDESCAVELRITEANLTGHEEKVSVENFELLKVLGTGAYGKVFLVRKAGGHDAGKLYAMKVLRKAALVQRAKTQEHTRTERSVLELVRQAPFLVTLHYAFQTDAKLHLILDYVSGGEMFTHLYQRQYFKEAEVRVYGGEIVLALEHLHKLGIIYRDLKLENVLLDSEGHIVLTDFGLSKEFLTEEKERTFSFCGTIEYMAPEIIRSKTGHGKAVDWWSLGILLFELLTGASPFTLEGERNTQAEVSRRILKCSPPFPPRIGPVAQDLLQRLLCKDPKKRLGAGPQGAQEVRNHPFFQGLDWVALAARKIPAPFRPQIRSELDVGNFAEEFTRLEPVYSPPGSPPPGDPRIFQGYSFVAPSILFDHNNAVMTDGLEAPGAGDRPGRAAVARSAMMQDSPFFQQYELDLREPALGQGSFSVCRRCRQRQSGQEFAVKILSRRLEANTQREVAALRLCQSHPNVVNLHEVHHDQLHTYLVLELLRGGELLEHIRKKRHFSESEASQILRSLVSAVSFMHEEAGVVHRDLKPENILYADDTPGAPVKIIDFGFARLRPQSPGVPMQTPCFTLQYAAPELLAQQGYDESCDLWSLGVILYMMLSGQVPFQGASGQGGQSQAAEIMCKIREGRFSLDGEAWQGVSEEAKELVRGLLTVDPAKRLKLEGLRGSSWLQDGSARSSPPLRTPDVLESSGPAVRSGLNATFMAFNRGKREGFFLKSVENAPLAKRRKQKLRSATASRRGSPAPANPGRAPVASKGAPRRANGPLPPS
Chain of BLK (P51451 whole entry): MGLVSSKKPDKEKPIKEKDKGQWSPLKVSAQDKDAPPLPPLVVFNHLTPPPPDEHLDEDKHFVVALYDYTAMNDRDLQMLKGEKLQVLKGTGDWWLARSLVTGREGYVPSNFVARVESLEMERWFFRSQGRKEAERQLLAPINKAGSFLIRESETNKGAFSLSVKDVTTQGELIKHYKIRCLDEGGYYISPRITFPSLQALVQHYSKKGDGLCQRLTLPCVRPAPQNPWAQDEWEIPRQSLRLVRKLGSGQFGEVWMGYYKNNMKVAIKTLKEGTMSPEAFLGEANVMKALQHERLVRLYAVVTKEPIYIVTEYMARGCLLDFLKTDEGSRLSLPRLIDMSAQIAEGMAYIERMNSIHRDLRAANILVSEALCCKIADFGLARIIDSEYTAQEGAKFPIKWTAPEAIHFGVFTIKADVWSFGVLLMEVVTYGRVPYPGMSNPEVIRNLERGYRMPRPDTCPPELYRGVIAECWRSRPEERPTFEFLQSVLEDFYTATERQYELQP
Chain of CK1-γ3 (Q9Y6M4 whole entry): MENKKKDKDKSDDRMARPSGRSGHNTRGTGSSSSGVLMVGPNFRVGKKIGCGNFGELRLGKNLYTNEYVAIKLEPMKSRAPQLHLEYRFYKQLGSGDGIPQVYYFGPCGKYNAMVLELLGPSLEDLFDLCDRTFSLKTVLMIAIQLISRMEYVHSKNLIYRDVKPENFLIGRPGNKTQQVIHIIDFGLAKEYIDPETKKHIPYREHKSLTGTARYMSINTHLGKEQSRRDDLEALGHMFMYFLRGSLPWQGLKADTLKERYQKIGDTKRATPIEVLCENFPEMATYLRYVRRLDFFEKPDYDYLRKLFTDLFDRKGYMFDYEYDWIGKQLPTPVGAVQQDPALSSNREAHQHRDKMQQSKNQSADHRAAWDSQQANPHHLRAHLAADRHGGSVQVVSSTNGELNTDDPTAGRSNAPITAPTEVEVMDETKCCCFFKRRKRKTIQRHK
Chain of PASK (Q96RG2 whole entry): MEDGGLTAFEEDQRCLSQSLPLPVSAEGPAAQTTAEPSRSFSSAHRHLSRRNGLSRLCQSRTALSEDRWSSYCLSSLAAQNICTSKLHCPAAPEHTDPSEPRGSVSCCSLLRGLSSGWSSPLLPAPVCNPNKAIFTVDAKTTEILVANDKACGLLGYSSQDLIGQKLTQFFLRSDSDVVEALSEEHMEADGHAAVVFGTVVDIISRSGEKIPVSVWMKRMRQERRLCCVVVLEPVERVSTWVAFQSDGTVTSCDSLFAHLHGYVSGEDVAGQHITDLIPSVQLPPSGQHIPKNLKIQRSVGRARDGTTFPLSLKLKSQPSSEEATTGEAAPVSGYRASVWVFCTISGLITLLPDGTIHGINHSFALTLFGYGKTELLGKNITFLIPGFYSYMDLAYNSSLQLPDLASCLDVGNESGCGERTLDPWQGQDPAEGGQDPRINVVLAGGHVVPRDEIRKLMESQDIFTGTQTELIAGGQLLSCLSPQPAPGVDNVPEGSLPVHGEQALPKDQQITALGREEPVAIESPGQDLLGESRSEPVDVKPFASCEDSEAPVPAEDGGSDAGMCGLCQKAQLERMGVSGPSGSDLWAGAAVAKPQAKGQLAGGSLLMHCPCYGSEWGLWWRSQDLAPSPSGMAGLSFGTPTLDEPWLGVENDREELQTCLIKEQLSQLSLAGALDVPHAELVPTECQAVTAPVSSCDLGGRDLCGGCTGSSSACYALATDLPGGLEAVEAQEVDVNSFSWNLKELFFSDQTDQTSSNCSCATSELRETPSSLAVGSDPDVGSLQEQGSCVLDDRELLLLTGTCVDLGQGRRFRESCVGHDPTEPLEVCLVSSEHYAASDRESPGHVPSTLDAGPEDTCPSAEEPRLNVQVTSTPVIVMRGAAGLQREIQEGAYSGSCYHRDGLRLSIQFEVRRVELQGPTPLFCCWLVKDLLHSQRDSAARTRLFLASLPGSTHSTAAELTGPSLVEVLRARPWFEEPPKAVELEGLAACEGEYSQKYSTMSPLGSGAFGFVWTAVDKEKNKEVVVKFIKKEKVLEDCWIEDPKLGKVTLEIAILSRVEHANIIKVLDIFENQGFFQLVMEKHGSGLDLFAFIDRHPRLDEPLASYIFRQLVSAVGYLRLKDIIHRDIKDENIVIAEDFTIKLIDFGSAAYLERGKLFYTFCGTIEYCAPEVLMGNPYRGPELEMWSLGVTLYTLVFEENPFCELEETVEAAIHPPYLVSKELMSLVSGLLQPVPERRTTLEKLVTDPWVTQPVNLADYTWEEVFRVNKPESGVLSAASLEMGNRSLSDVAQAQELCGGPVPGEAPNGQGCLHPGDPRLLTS
Chain of GSK3β (P49841 whole entry): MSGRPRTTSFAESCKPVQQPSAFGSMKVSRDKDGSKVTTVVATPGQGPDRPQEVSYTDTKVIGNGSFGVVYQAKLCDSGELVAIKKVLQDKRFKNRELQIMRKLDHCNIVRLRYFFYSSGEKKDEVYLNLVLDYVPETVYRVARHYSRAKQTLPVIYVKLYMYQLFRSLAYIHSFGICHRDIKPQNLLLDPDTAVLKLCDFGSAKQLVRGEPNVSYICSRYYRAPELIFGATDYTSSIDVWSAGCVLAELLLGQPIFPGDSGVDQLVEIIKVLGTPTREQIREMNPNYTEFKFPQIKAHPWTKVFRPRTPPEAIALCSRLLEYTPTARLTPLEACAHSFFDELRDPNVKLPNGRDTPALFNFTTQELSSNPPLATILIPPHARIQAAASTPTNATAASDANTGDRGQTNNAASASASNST
Chain of MEK1 (Q02750 whole entry): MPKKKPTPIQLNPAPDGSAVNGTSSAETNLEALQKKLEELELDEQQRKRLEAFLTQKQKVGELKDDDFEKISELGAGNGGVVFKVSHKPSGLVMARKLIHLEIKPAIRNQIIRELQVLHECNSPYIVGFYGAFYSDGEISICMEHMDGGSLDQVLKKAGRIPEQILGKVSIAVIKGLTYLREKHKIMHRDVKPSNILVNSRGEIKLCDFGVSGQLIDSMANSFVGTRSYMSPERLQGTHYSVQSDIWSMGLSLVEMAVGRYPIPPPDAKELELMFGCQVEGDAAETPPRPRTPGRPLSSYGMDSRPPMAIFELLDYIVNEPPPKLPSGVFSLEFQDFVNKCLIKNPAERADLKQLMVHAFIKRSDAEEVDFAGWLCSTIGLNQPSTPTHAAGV
Chain of PYK2 (Q14289 whole entry): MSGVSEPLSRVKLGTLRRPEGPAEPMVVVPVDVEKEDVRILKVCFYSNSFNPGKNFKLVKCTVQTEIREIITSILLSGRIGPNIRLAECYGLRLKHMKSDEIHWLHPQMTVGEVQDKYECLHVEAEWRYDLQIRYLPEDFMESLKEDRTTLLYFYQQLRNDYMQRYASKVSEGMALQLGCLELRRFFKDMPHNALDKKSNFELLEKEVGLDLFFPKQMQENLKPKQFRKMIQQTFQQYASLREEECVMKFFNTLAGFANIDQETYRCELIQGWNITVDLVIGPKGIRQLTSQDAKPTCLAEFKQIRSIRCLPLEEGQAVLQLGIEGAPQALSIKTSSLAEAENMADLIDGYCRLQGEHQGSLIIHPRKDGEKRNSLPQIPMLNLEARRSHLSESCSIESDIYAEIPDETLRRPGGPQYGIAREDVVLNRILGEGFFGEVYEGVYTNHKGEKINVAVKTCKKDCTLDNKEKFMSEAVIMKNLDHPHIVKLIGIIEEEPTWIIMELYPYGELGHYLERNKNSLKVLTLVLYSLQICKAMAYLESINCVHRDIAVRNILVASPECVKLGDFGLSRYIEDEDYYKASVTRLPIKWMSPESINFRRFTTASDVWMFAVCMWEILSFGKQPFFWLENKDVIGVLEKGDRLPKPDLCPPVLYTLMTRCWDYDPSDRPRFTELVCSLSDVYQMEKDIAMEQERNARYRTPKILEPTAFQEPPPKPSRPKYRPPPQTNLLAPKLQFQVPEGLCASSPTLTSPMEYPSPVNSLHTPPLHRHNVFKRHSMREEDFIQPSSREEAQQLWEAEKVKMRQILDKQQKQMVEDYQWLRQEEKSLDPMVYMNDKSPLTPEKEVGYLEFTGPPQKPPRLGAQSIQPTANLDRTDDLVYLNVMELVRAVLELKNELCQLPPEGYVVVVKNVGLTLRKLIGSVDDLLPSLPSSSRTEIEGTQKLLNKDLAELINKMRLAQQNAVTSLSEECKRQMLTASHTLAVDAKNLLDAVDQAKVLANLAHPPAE

SMILES	inhibition at 0.1 µM (MARK3)	inhibition at 1 µM (MARK3)	inhibition at 0.1 µM (PASK)	inhibition at 1 µM (PASK)	inhibition at 0.1 µM (MSK2)	inhibition at 1 µM (MSK2)	inhibition at 0.1 µM (MAPK1)	inhibition at 1 µM (MAPK1)	inhibition at 0.1 µM (PYK2)	inhibition at 1 µM (PYK2)	inhibition at 0.1 µM (BLK)	inhibition at 1 µM (BLK)	inhibition at 0.1 µM (GSK3β)	inhibition at 1 µM (GSK3β)	pIC50 (caALK3)	inhibition at 0.1 µM (TRKC)	inhibition at 1 µM (TRKC)	inhibition at 0.1 µM (CK1-γ3)	inhibition at 1 µM (CK1-γ3)	inhibition at 0.1 µM (AKT3)	also measured
COc1cc(-c2cc(-c3ccc(N4CCNCC4)cc3)cnc2C)cc(OC)c1OC [Compound 10, 1-(4-(6-methyl-5-(3,4,5-trimethoxyphenyl)pyridin-3-yl)phenyl)piperazine]	0%	3%	3%	4%	0%	1%	1%	1%	1%	5%	1%	12%	2%	4%	6.42	4%	4%	1%	10%	1%	inhibition at 1 µM (AKT3): 1%; ΔTm at 10 µM (ALK2): 13.7 °C; ΔTmDiff. (ALK2): 4.0; ΔT ALK2 (ALK2): 13.7 °C; ΔT Diff. (ALK2): 4.0 °C; inhibition at 0.1 µM (MEK1): 0%; inhibition at 1 µM (MEK1): 2%
COc1cc(-c2cc(-c3ccc(N4CCNCC4)cc3)cnc2N)cc(OC)c1OC [Compound 15, 5-(4-(piperazin-1-yl)phenyl)-3-(3,4,5-trimethoxyphenyl)pyridin-2-amine]	4%	48%	2%	1%	1%	-1%	3%	6%	10%	14%	16%	64%	0%	-1%	8.10	3%	3%	7%	30%	0%	inhibition at 1 µM (AKT3): 2%; ΔTm at 10 µM (ALK2): 15.1 °C; ΔTmDiff. (ALK2): 1.2; ΔT ALK2 (ALK2): 15.1 °C; ΔT Diff. (ALK2): 1.2 °C; inhibition at 0.1 µM (MEK1): 3%; inhibition at 1 µM (MEK1): 6%
